Test results: PubChem BioAssay AID2060335 (Molecular Pharmacology Branch, DTP, NCI, 2025)

System: DU-145 multicell spheroids with HUVEC/MSC, viability
Assay: Anticancer human tumor DU-145 cell line growth inhibition [IpAb];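 further: spheroids exposed to agents for seven days before measurement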;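 on viability, T/C: percent of DMSO vehicle control viability so 100% = untreated level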
Settings: for IC50: curve of first compound; for viability, T/C: stronger effect = lower value
Method in brief: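 Combinations with ipatasertib or abemaciclib were tested on tumour spheroids holding HUVEC (25%) and MSC (15%) alongside 60% malignant cells. Top concentration was at or near clinical Cmax (10 microM if undefined), descending in half-log steps.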

For `CC(C)(C)c1cnc(CSc2cnc(NC(=O)C3CCNCC3)s2)o1` + CCN1CCN(Cc2ccc(Nc3ncc(F)c(-c4cc(F)c5nc(C)n(C(C)C)c5c4)n3)nc2)CC1, the IC50 (second compound 0.01 µM) was 104 nM, the IC50 (second compound 0.0316 µM) was 82.2 nM and the IC50 (second compound 0.1 µM) was 66.6 nM. The IC50 (second compound 0.316 µM) was 60.4 nM, the IC50 (second compound 1 µM) was 34.9 nM and the viability, T/C (second compound 0.01 µM, first compound 0.00949 µM) was 108%. The viability, T/C (second compound 0.01 µM, first compound 0.03 µM) was 98.6%, the viability, T/C (second compound 0.01 µM, first compound 0.0949 µM) was 54% and the viability, T/C (second compound 0.01 µM, first compound 0.3 µM) was 8.61%. It also gave a viability, T/C (second compound 0.01 µM, first compound 0.949 µM) of 6.08%, a viability, T/C (second compound 0.01 µM, first compound 3 µM) of 5.15% and a viability, T/C (second compound 0.0316 µM, first compound 0.00949 µM) of 94.3%. It also gave a viability, T/C (second compound 0.0316 µM, first compound 0.03 µM) of 88.2%, a viability, T/C (second compound 0.0316 µM, first compound 0.0949 µM) of 44.7% and a viability, T/C (second compound 0.0316 µM, first compound 0.3 µM) of 8.69%. The viability, T/C (second compound 0.0316 µM, first compound 0.949 µM) was 5.54%, the viability, T/C (second compound 0.0316 µM, first compound 3 µM) was 5.3% and the viability, T/C (second compound 0.1 µM, first compound 0.00949 µM) was 87.6%. It also gave a viability, T/C (second compound 0.1 µM, first compound 0.03 µM) of 77.4%, a viability, T/C (second compound 0.1 µM, first compound 0.0949 µM) of 38.1% and a viability, T/C (second compound 0.1 µM, first compound 0.3 µM) of 7.33%. The viability, T/C (second compound 0.1 µM, first compound 0.949 µM) was 5.93%, the viability, T/C (second compound 0.1 µM, first compound 3 µM) was 4.44% and the viability, T/C (second compound 0.316 µM, first compound 0.00949 µM) was 77.5%. It also gave a viability, T/C (second compound 0.316 µM, first compound 0.03 µM) of 75.4%, a viability, T/C (second compound 0.316 µM, first compound 0.0949 µM) of 33.8% and a viability, T/C (second compound 0.316 µM, first compound 0.3 µM) of 7.83%. For the same molecule, the viability, T/C (second compound 0.316 µM, first compound 0.949 µM) was 5.35%, the viability, T/C (second compound 0.316 µM, first compound 3 µM) was 4.86% and the viability, T/C (second compound 1 µM, first compound 0.00949 µM) was 67.8%. It also gave a viability, T/C (second compound 1 µM, first compound 0.03 µM) of 55.7%, a viability, T/C (second compound 1 µM, first compound 0.0949 µM) of 12.7% and a viability, T/C (second compound 1 µM, first compound 0.3 µM) of 6.89%. For the same molecule, the viability, T/C (second compound 1 µM, first compound 0.949 µM) was 4.71% and the viability, T/C (second compound 1 µM, first compound 3 µM) was 4.63%.
